In general, inhibition refers to the drop in the measured response relative to a control, in per cent.

Data on three molecules can be found in patent US20210276967A1 (OSPEDALE SAN RAFFAELE S.R.L., priority 2018, published 2021).

Experiment [1] has as its system HBV. The note with it: Phase 1b clinical studies; cited from earlier work.
Experiment [2] concerns HBV. Description: HBV inhibition in HepAD38 cells, extracellular HBV DNA by direct qPCR. The experiment is classed as cell-based, hepatitis B virus. The conditions noted are these: Hepatitis B virus, HepAD38, 96 hours, read-out: HBV inhibition % (conc μM). The text has this: HepAD38 cell line (Ladner et al., Antimicrob Agents Chemother, 1997, 41, 1715-20) was used for HBV inhibition assays. HepAD38 is a subclone, derived from hepatoblastoma cell line HepG2 (ATCC® Number: HB-8065™), that expresses HBV genome under the transcriptional control of a tetracycline-responsive promoter in a TET-OFF system: addition of tetracycline (TET) or doxycycline suppresses HBV replication, while its removal switches on the process allowing HBV viral particles release in the cell supernatant. HepAD38 cell line is maintained in DMEM/F12, supplemented with 10% of fetal bovine serum, 1% of glutamine, 1% of penicillin/streptomycin, 0.4 mg/ml G418 and 0.3 ug/ml tetracycline. For the HBV inhibition assay, doxycycline-free medium is used in order to allow virion production.
HBV inhibition activity in vitro was performed in 96 multiwell plates. During the initial (primary) screening compounds were first tested in triplicates at concentrations of 0.1 μM, 0.5 μM and 1 μM. For selected compounds, an 8-point dose-response curve was obtained using 1:2 serial dilutions (starting from 2.5 μM, 1.25 μM or 0.4 μM, depending on the degree of inhibition observed during the primary screening). From the dose-response curves, half maximal effective concentration (EC50) could be calculated (see also below).
In more detail, compounds—typically dissolved in DMSO stock solutions—were diluted to 2× the final desired concentration in 100 μl of the above medium (without doxycycline) and plated in three replicates in the 96-well plates.
Simultaneously, HepAD38 cells—extensively pre-washed in tetracycline-free medium in order to induce HBV production—were suspended at 2*10^4 cells in 100 μl of tetracycline-free medium and added to each well of the plate, to yield a final assay volume of 200 μl.
DMSO, used for stock solutions and compounds dilutions, is always present in the assays at a final concentration of 0.5%.
Plates were then incubated 96 hours at 37° C. and then subjected to cell viability assays and extracellular HBV quantification, in order to evaluate both the cytotoxic potential and the anti-viral activity of compounds.
Cytotoxicity was assessed by a commercial fluorescence assay that measures the metabolic activity of cells, directly related to cell viability (Cell Titer Blue, Promega). For each compound, cytotoxicity was evaluated at the same concentration employed to evaluate its anti-HBV activity. Anti-HBV activity was evaluated by quantification of extracellular HBV DNA with direct qPCR. In particular, supernatant was collected and centrifuged for cell debris clarification, viral DNA was extracted from virions by addition of lysis buffer (1 mM 1,4-dithiothreitol, 0.2% sodium dodecyl sulphate) and incubated at 95° C. for 10 min. Samples were then diluted 1:40 and real time PCR amplification was performed with SYBR green assay (Power SYBR™ Green PCR Master Mix-Thermo Fisher Scientific) and specific HBV primer (HBV-DF:5′-[…]-3′ (SEQ ID No. 1), HBV-DR:5′-[…]-3′ (SEQ ID No. 2)).
All HBV inhibition or antiviral activity data are typically reported in percent (%) relative to a non-treated reference sample. Excel and Graphpad Prism programs are typically used for data elaboration and EC50 calculation.

Some results are limits rather than exact numbers.

As for `O=C(Nc1cc(F)c(F)c(F)c1)c1ccc(F)c(S(=O)(=O)N2CCC(O)CC2)c1` [NVR3-778], in experiment [1], the “reduction in HBV DNA” value was “significant reduction” and the “reduction in serum HBV RNA” value is reported as “significant reduction”.
As to `CC(C)(C)OC(=O)N[C@H]1CCC[C@H]1NS(=O)(=O)c1cc(C(=O)Nc2cc(F)c(F)c(F)c2)ccc1N` [Example E52, tert-butyl ((1S,2R)-2-((2-amino-5-((3,4,5-trifluorophenyl)carbamoyl)phenyl)sulfonamido)cyclopentyl)carbamate], the inhibition at 1 µM in experiment [2] (1 μM) is over 50%.
Consider `Nc1ccc(C(=O)Nc2ccc(F)c(Cl)c2)cc1S(=O)(=O)N1CC(O)C1` [Example E55, 4-amino-N-(3-chloro-4-fluorophenyl)-3-((3-hydroxyazetidin-1-yl)sulfonyl)benzamide], for which the inhibition at 0.5 µM in experiment [2] (0.5 μM) is over 50%.
